Data published in publication PMC2748827 (Nature, 2009).

Test system: A/Kawasaki/UTK-4/09 (H1N1)
Assay type: cell-based, influenza A virus (H1N1)

CCOC(=O)C1=C[C@@H](OC(CC)CC)[C@H](NC(C)=O)[C@@H](N)C1 [oseltamivir]
susceptibility of virus in cell culture (in words): resistance
